# *1 amine or outer side, *2 acyl side, *3 side chain or, on linkers, in order; H or OH if unused. Where a SMILES comes first, the peptide text is derived from it. Bridges are numbered along the chain shown (N, C = ends). [ ]: non-standard residue; d: D form. The star is where a group is joined. Leu(3R-O(AcLeu(3R-OH))) = CC(=O)N[C@H](C(=O)O[C@H](C(C)C)[C@H](N)C(=O)O)[C@H](O)C(C)C; Leu(3R-OH,Nα-propionyl) = CCC(=O)N[C@H](C(=O)*)[C@H](O)C(C)C; X1 = CC(C)[C@@H](O[*:3])[C@H](N[*:1])C(=O)[*:2]; NMeT = CN[C@H](C(=O)O)[C@@H](C)O; dPhLac = O=C(O)[C@H](O)Cc1ccccc1; NMeA = CN[C@@H](C)C(=O)O; NMeDha = C=C(NC)C(=O)O
# Tests used:
# [1] = Inhibition of Gq (unknown origin) coupled with muscarinic M1 receptor expressed in CHO cells assessed as reduction in carbachol-induced IP1 accumulation pretreated for 1 hr followed by carbachol addition measured after 35 mins by HTRF assay; format: cell-based
# [2] = Displacement of [3H]PSB-15900 from Gq (unknown origin) expressed in platelet cell membranes; set-up: species or system Homo sapiens
IC50 [1],pIC50 [2],SMILES
2.29 to 16.2 nM,7.79 to 8.64,C=C1C(=O)N[C@@H](C)C(=O)N(C)[C@@H](C)C(=O)N[C@@H]([C@H](OC(=O)[C@@H](NC(=O)CC)[C@H](O)C(C)C)C(C)C)C(=O)N(C)[C@@H]([C@@H](C)OC)C(=O)O[C@H](C(C)C)[C@H](NC(=O)CCO)C(=O)O[C@H](Cc2ccccc2)C(=O)N1C
2.29 to 16.2 nM,7.79 to 8.64,C=C1C(=O)N[C@@H](C)C(=O)N(C)[C@@H](C)C(=O)N[C@@H]([C@H](OC(=O)[C@@H](NC(C)=O)[C@H](O)C(C)C)C(C)C)C(=O)N(C)[C@@H]([C@@H](C)OC)C(=O)O[C@H](C(C)C)[C@H](NC(C)=O)C(=O)O[C@H](Cc2ccccc2)C(=O)N1C (Ac-[X1][dPhLac][NMeDha]A[NMeA][Leu(3R-O(AcLeu(3R-OH)))][NMeT](Me); ester 1-C)

SMILES,IC50 [1],pIC50 [2]
"C=C1C(=O)N[C@@H](C)C(=O)N(C)[C@@H](C)C(=O)N[C@@H]([C@H](OC(=O)[C@@H](NC(=O)CC)[C@H](O)C(C)C)C(C)C)C(=O)N(C)[C@@H]([C@@H](C)OC)C(=O)O[C@H](C(C)C)[C@H](NC(C)=O)C(=O)O[C@H](Cc2ccccc2)C(=O)N1C (Ac-[X1][dPhLac][NMeDha]A[NMeA][X1](Leu(3R-OH,Nα-propionyl))[NMeT](Me); ester 1-C)",2.29 to 16.2 nM,7.79 to 8.64

# From ChEMBL document CHEMBL4145635, “Applying Molecular Networking for the Detection of Natural Sources and Analogues of the Selective Gq Protein Inhibitor FR900359” (J Nat Prod, 2018)
